Source: publication PMC8645336, “Benchmarking a highly selective USP30 inhibitor for enhancement of mitophagy and pexophagy” (Life Science Alliance, 2021)

Legend:
Assay in all cases: biochemical
Parameters in all cases: Ubiquigent DUB profiler selectivity panel, remaining enzyme activity as % of control
Details in all cases: read-out: % of control remaining
[1] = target: USP46/UAF1/WDR20 (Homo sapiens, UniProt P62068)
How it was run: (§1)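 CMPD-39 selectivity was profiled at 1-100 μM across >40 DUBs. Cellular engagement used 2 h CMPD-39 pretreatment, then HA-Ub-PA probe for 10 min at 37°C, with USP30 band shift on immunoblot. TOMM20 ubiquitylation was blotted in YFP-PRKN hTERT-RPE1 cells after 1 h antimycin A/oligomycin A (1 μM each).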

[2] = target: T1, USP2 (Homo sapiens, UniProt O75604)
T1 sequence (O75604 1-605): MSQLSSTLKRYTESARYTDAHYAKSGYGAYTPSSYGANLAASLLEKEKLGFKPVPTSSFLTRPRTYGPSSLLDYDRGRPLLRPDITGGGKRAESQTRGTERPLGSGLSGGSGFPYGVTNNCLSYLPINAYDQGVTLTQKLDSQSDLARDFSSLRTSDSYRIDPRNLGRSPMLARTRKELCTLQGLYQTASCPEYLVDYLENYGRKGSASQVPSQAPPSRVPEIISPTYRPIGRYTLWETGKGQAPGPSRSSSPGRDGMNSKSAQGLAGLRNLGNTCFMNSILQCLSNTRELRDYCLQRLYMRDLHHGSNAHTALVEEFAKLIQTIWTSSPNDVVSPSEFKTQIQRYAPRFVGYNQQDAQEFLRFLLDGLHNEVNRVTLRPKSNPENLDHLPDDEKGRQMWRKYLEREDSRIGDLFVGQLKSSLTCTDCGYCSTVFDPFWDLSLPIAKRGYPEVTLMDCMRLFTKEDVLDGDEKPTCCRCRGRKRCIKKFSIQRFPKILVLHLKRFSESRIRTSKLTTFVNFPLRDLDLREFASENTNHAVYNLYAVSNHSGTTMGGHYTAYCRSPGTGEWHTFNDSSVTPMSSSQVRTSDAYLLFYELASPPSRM
How it was run: as §1

[3] = target: T2, OTUB2 (Homo sapiens, UniProt Q96DC9)
T2 sequence (Q96DC9 1-234): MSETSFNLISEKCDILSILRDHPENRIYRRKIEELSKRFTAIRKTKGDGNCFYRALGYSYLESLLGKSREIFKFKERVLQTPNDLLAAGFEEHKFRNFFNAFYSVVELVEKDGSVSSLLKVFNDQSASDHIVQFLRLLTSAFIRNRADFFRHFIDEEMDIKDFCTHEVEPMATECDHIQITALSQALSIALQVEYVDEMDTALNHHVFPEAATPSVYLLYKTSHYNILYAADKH
How it was run: as §1

[4] = target: USP1/UAF1 (Homo sapiens, UniProt O94782)
How it was run: as §1

[5] = target: USP6 (Homo sapiens, UniProt P35125)
Sequence of USP6 (P35125 whole entry): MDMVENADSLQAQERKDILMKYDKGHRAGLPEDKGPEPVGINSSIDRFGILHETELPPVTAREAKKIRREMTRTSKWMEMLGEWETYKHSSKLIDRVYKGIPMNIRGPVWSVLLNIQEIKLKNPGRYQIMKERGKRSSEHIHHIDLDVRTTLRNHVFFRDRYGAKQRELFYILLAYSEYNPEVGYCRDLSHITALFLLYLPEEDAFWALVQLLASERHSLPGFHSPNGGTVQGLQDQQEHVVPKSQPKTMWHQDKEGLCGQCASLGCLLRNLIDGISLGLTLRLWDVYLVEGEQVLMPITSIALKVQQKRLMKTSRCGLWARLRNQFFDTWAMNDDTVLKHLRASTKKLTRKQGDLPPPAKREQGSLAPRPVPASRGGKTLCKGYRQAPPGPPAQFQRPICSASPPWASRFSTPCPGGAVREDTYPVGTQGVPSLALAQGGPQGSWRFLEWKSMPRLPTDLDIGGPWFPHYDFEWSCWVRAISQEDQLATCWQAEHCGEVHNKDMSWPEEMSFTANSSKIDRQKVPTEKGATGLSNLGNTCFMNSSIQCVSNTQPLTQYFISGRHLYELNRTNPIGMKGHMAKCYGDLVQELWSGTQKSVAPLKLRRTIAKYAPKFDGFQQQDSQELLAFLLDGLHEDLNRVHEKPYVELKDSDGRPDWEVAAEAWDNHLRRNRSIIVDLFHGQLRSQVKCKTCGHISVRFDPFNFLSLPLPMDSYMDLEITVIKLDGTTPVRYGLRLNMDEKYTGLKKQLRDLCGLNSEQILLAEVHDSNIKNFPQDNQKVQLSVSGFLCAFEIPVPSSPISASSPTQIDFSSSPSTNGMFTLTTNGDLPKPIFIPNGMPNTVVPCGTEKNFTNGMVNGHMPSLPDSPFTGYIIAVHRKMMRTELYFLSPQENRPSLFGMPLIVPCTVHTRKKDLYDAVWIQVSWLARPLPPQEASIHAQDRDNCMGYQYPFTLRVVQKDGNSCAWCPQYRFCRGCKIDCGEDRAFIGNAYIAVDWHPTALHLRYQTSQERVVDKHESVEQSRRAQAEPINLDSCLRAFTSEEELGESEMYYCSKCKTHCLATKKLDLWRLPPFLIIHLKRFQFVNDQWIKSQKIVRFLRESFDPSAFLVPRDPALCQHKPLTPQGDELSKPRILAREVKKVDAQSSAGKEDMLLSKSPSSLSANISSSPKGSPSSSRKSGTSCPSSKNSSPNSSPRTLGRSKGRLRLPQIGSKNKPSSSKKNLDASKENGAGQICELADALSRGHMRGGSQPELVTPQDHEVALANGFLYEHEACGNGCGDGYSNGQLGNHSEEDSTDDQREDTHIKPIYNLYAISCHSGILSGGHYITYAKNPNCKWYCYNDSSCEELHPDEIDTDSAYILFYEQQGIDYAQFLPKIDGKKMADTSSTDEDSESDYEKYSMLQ
How it was run: as §1

[6] = target: USP20 (Homo sapiens, UniProt Q9Y2K6)
Sequence of USP20 (Q9Y2K6 whole entry): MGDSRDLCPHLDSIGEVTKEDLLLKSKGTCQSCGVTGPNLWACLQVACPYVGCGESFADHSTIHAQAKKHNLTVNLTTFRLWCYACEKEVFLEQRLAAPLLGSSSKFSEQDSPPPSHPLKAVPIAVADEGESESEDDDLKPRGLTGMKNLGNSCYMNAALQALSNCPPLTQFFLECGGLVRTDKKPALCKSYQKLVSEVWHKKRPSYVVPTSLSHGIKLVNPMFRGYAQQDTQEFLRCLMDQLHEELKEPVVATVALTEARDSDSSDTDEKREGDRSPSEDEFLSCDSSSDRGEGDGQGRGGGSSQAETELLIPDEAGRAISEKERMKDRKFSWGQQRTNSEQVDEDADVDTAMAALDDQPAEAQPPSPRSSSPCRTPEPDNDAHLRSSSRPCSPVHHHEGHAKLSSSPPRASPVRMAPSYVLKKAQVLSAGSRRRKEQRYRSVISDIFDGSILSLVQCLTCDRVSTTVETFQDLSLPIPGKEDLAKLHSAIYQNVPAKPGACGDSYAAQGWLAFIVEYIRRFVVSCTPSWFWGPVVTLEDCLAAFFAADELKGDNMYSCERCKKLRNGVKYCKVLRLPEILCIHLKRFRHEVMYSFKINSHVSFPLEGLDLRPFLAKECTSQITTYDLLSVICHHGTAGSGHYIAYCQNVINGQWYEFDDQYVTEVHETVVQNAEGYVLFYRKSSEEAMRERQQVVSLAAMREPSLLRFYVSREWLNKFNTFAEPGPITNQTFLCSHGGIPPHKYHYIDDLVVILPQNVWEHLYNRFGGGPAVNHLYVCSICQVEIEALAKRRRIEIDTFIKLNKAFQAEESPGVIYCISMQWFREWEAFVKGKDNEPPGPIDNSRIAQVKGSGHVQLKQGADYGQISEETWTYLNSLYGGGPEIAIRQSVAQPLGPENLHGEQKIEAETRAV
How it was run: as §1

[7] = target: USP7 (Homo sapiens, UniProt Q93009)
Sequence of USP7 (Q93009 whole entry): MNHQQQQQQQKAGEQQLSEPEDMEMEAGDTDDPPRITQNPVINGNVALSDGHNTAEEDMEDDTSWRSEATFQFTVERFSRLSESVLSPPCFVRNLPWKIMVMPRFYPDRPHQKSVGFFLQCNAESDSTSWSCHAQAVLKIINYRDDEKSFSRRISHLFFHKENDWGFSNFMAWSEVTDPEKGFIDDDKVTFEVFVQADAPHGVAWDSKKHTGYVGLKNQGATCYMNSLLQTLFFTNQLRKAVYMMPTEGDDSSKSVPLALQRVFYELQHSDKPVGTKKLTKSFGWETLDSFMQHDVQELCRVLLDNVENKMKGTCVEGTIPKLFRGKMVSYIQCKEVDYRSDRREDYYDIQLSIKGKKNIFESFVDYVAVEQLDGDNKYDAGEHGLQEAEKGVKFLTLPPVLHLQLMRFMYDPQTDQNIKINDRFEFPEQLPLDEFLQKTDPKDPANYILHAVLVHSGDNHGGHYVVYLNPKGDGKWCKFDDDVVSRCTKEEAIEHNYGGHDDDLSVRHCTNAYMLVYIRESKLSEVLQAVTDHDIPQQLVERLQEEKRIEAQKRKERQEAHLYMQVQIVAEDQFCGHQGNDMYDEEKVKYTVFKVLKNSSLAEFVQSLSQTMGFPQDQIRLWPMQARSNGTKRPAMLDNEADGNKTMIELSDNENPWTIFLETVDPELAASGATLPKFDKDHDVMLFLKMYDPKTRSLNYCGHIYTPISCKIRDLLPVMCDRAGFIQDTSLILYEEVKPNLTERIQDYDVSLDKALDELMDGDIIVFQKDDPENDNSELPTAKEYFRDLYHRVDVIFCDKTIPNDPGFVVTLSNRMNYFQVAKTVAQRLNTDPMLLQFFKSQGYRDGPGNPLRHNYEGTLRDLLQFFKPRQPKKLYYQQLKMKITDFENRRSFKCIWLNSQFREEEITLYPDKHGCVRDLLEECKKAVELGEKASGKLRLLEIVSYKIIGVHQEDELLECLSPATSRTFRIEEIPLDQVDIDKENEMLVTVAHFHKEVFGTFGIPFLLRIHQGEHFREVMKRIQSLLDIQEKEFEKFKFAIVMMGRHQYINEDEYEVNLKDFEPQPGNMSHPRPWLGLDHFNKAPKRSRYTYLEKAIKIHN
How it was run: as §1

Sequence of USP46/UAF1/WDR20 (P62068 whole entry): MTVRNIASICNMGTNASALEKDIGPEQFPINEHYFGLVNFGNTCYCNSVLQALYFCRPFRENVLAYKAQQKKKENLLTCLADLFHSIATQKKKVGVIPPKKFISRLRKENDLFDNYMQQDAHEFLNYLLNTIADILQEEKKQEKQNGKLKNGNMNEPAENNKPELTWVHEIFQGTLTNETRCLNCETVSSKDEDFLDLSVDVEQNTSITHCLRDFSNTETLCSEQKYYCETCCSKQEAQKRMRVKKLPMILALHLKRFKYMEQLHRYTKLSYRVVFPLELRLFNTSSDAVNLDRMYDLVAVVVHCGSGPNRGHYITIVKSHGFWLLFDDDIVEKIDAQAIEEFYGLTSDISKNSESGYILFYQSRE
Sequence of USP46/UAF1/WDR20 (Q8TAF3 whole entry partner): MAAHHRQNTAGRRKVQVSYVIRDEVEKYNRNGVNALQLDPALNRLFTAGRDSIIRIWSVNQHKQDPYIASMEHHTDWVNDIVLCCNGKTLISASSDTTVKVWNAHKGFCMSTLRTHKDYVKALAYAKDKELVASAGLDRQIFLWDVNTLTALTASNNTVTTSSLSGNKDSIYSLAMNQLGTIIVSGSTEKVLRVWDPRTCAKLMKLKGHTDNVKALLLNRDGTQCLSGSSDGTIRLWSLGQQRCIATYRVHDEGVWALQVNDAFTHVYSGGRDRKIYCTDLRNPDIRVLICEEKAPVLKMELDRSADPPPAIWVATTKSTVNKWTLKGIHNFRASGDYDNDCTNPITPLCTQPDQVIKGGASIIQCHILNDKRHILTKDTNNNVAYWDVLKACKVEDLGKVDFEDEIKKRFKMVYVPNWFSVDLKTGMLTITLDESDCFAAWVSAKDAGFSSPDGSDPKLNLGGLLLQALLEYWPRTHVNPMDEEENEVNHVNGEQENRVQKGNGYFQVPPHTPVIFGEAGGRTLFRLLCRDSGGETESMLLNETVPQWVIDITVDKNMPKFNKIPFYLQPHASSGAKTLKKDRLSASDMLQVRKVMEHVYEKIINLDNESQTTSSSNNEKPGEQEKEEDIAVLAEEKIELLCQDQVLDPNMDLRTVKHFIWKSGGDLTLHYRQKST
Sequence of USP46/UAF1/WDR20 (Q8TBZ3 whole entry partner): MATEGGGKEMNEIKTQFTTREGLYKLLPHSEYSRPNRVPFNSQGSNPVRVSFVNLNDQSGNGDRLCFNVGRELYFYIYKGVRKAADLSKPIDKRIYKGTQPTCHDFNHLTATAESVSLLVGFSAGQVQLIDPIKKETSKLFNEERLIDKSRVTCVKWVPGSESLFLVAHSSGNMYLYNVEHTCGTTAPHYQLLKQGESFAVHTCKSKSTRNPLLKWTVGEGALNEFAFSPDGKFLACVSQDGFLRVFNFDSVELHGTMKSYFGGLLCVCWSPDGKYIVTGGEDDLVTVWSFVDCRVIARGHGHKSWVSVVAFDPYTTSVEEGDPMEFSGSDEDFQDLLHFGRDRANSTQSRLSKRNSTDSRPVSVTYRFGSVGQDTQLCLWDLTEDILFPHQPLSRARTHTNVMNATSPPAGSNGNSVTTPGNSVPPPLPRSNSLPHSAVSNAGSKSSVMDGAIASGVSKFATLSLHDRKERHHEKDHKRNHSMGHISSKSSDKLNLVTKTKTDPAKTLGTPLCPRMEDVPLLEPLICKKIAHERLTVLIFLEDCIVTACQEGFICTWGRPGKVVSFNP

remaining activity at 1 µM [1]: 110% | remaining activity at 10 µM [1]: 97.5% | remaining activity at 100 µM [1]: 97.4% | remaining activity at 1 µM [2]: 107% | remaining activity at 10 µM [2]: 97.7% | remaining activity at 100 µM [2]: 101% | remaining activity at 1 µM [3]: 103% | remaining activity at 10 µM [3]: 97.5% | remaining activity at 100 µM [3]: 97.3% | remaining activity at 1 µM [4]: 98.6% | remaining activity at 10 µM [4]: 95.6% | remaining activity at 100 µM [4]: 97.4% | remaining activity at 1 µM [5]: 101% | remaining activity at 10 µM [5]: 96.8% | remaining activity at 100 µM [5]: 90.6% | remaining activity at 1 µM [6]: 113% | remaining activity at 10 µM [6]: 110% | remaining activity at 100 µM [6]: 155% | remaining activity at 1 µM [7]: 106% | remaining activity at 10 µM [7]: 98.4% | remaining activity at 100 µM [7]: 94.1%
SMILES: CC(C)(C)NS(=O)(=O)c1ccc(NC(=O)[C@H](Cc2ccccc2)NC(=O)c2ccc(F)cc2)cc1 [compound 39, CMPD-39]
